Source: patent US20150157588A1, “Pharmaceutical Composition Comprising Amino-Phenyl-Acetic Acid Octadec-(Z)-9-enyl Ester and Use Thereof for Treating Tumors” (Yeda Research and Development Co., Ltd., priority 2012, published 2015)

How the values were obtained:
[1] = system: p53 expressing L-12 mouse B cell line; assay: Apoptosis by hypo-diploid nuclei PI staining, transformed B cell line; format: cell-based; details: 10 or 100 μg per ml in 5% ethanol solution, 48 h
Description: Apoptosis was measured by FACS analysis with a hypo-diploid nuclei propidium iodide (PI) staining of an amino-phenyl-acetic acid octadec-(Z)-9-enyl ester treated p53 expressing L-12 mouse B cell line. FIGS. 4A-4C: L-12 cells treated with 0, 10 or 100 μg/ml of amino-phenyl-acetic acid octadec-(Z)-9-enyl ester in ethanol solution, respectively; FIGS. 4D-4F: L-12 cells treated with 0, 10 or 100 μg/ml of the control reagent 4-methyl-piperazino-acetic acid ethyl ester in ethanol solution, respectively; and FIGS. 4G-4I: L-12 cells treated with an ethanol volume corresponding to 0, 10 or 100 μg/ml of amino-phenyl-acetic acid octadec-(Z)-9-enyl ester, respectively. FL2-A is the measure of fluorescence. […]
(§1) B or T-cell apoptosis was detected by flow cytometry. […] The cells were then subjected to flow cytometric analysis; for each sample 10,000 were collected and cell-cycle distribution was analyzed according to relative DNA content (PI staining). […] The cells were then collected, stained by APO-DIRECT TUNNEL kit (Phnxflow, CITY, Calif., USA); mitochondrial potential was measured by DePsipher (R&D Systems, Minneapolis, Minn.) according to the manufacturer's procedure. Intracellular caspase activity was measured by Apostat kit (R&D Systems), according to the manufacturer's procedure. The cells were analyzed by Flow cytometry using FACSort (Becton Dickinson) and CellQuest software (Becton Dickinson). […]

[2] = system: freshly isolated mouse B cells; assay: Spontaneous apoptosis by hypo-diploid nuclei PI staining, primary B cells; format: cell-based; details: 1 or 100 μg/ml in ethanol solution
Description: Apoptosis was measured by FACS analysis with a hypo-diploid nuclei propidium iodide (PI) staining of freshly isolated mouse B cells treated with amino-phenyl-acetic acid octadec-(Z)-9-enyl ester in ethanol solution. FIGS. 5A-5C: L-12 cells treated with 0, 1 or 100 μg/ml of amino-phenyl-acetic acid octadec-(Z)-9-enyl ester, respectively; FIGS. 5D-5F: L-12 cells treated with 0, 1 or 100 μg/ml of the control reagent 4-methyl-piperazino-acetic acid ethyl ester, respectively; and FIGS. 5G-5I: L-12 cells treated with an ethanol volume corresponding to 0, 1 or to 100 μg/ml of amino-phenyl-acetic acid octadec-(Z)-9-enyl ester in ethanol solution, respectively.
as §1

CCOC(=O)CN1CCN(C)CC1 [4-methyl-piperazino-acetic acid ethyl ester, reference compound]
apoptosis / cell cycle (cells in sub-GO state) [1]: had no effect | spontaneous apoptosis / cell-cycle of primary B cells [2]: had no effect
